By TD50 is commonly meant the dose at which the toxic effect under study appears in half of the subjects.

Molecules are shown by their SMILES. “And” between values parts separate entries of the source, which are not always exact repeats. Equal values may be shown once. The source made the active and inactive calls. No rule for the calls is given here.

This passage reports TD50 and carcinogen call results from PubChem BioAssay AID1745844 (Carcinogenic Potency Database (CPDB), 2022).

The series relates to rodent lifetime carcinogenesis bioassay, tumor incidence TD50. The experiment in a line: chronic cancer bioassays in animals – CPDB, compiled studies (AID 1745844).

As to `[O-][Br+2]([O-])O`, the TD50 reads like this: (hamster, strain Syrian Golden, males, in drinking water, site: kidney, lesion: renal-cell tumor, dosed 89 weeks, study length 89 weeks) 533 mg/kg/day; (mouse, strain B6C3F1, females, in drinking water, site: any site (literature study), lesion: several types, types named in the paper, dosed 78 weeks, study length 104 weeks) 477 mg/kg/day; (mouse, strain B6C3F1, females, in drinking water, site: liver, lesion: adenoma, dosed 78 weeks, study length 104 weeks) 1180 mg/kg/day; (mouse, strain B6C3F1, females, in drinking water, site: liver, lesion: several types, types named in the paper, dosed 78 weeks, study length 104 weeks) 1710 mg/kg/day; (mouse, strain B6C3F1, females, in drinking water, site: lung, lesion: adenoma, dosed 78 weeks, study length 104 weeks) 2030 mg/kg/day; (mouse, strain B6C3F1, females, in drinking water, site: lung, lesion: several types, types named in the paper, dosed 78 weeks, study length 104 weeks) 1050 mg/kg/day. Besides, the TD50 is 92.5 mg/kg/day (mouse, strain B6C3F1, males, in drinking water, site: kidney, lesion: renal-cell carcinoma, dosed 100 weeks, study length 100 weeks); 53.8 mg/kg/day (mouse, strain B6C3F1, males, in drinking water, site: kidney, lesion: several types, types named in the paper, dosed 100 weeks, study length 100 weeks); 347 mg/kg/day (inactive) (mouse, strain Theiller's Original, females, in feed, site: liver, lesion: hemangioma, dosed 80 weeks, study length 80 weeks); 79.2 mg/kg/day (rat, strain F344/DuCrj, males, in drinking water, site: kidney, lesion: adenocarcinoma, dosed 26 weeks, study length 104 weeks); 16.9 mg/kg/day (rat, strain F344/DuCrj, males, in drinking water, site: kidney, lesion: adenocarcinoma, dosed 39 weeks, study length 104 weeks); 35.5 mg/kg/day (rat, strain F344/DuCrj, males, in drinking water, site: kidney, lesion: adenocarcinoma, dosed 52 weeks, study length 104 weeks). In addition, the TD50 reads like this: (rat, strain F344/DuCrj, males, in drinking water, site: kidney, lesion: adenocarcinoma, dosed 104 weeks, study length 104 weeks) 105 mg/kg/day and 224 mg/kg/day; (rat, strain F344/DuCrj, males, in drinking water, site: kidney, lesion: adenoma, dosed 26 weeks, study length 104 weeks) 6.67 mg/kg/day; (rat, strain F344/DuCrj, males, in drinking water, site: kidney, lesion: adenoma, dosed 39 weeks, study length 104 weeks) 5.57 mg/kg/day; (rat, strain F344/DuCrj, males, in drinking water, site: kidney, lesion: adenoma, dosed 52 weeks, study length 52 weeks) 4.98 mg/kg/day; (rat, strain F344/DuCrj, males, in drinking water, site: kidney, lesion: adenoma, dosed 52 weeks, study length 104 weeks) 10.1 mg/kg/day; (rat, strain F344/DuCrj, males, in drinking water, site: kidney, lesion: adenoma, dosed 104 weeks, study length 104 weeks) 48 mg/kg/day and 35.7 mg/kg/day. Moreover, the TD50 reads like this: (rat, strain F344/DuCrj, males, in drinking water, site: kidney, lesion: renal-cell tumor, dosed 104 weeks, study length 104 weeks) 28.9 mg/kg/day; (rat, strain F344/DuCrj, males, in drinking water, site: kidney, lesion: several types, types named in the paper, dosed 26 weeks, study length 104 weeks) 6.67 mg/kg/day; (rat, strain F344/DuCrj, males, in drinking water, site: kidney, lesion: several types, types named in the paper, dosed 39 weeks, study length 104 weeks) 4.81 mg/kg/day; (rat, strain F344/DuCrj, males, in drinking water, site: kidney, lesion: several types, types named in the paper, dosed 52 weeks, study length 104 weeks) 8.32 mg/kg/day; (rat, strain F344/DuCrj, males, in drinking water, site: kidney, lesion: several types, types named in the paper, dosed 104 weeks, study length 104 weeks) 28.7 mg/kg/day; (rat, strain F344/DuCrj, males, in drinking water, site: liver, lesion: neoplastic nodule, dosed 104 weeks, study length 104 weeks) 53.2 mg/kg/day. The TD50 (rat, strain F344/DuCrj, males, in drinking water, site: peritoneum, lesion: mesothelioma, dosed 26 weeks, study length 104 weeks) turned out to be 7.84 mg/kg/day; the TD50 (rat, strain F344/DuCrj, males, in drinking water, site: peritoneum, lesion: mesothelioma, dosed 39 weeks, study length 104 weeks) came to 14 mg/kg/day; the TD50 (rat, strain F344/DuCrj, males, in drinking water, site: peritoneum, lesion: mesothelioma, dosed 52 weeks, study length 52 weeks) was 25.6 mg/kg/day; the TD50 (rat, strain F344/DuCrj, males, in drinking water, site: peritoneum, lesion: mesothelioma, dosed 52 weeks, study length 104 weeks) came out at 19.4 mg/kg/day; the TD50 (rat, strain F344/DuCrj, males, in drinking water, site: peritoneum, lesion: mesothelioma, dosed 104 weeks, study length 104 weeks) was 12.4 mg/kg/day and 19.5 mg/kg/day; the TD50 (rat, strain F344/DuCrj, males, in drinking water, site: thyroid gland, lesion: follicular-cell adenoma, dosed 104 weeks, study length 104 weeks) turned out to be 59.5 mg/kg/day. Moreover, the TD50 by setting is: (rat, strain F344/DuCrj, males, in drinking water, site: thyroid gland, lesion: follicular-cell tumor, dosed 26 weeks, study length 104 weeks) 11.3 mg/kg/day; (rat, strain F344/DuCrj, males, in drinking water, site: thyroid gland, lesion: follicular-cell tumor, dosed 52 weeks, study length 104 weeks) 19.4 mg/kg/day; (rat, strain F344/DuCrj, males, in drinking water, site: thyroid gland, lesion: follicular-cell tumor, dosed 104 weeks, study length 104 weeks) 39.8 mg/kg/day and 54.7 mg/kg/day; (rat, strain Fischer 344, females, in drinking water, site: any site (literature study), lesion: several types, types named in the paper, dosed 110 weeks, study length 111 weeks) 9.05 mg/kg/day; (rat, strain Fischer 344, females, in drinking water, site: kidney, lesion: adenocarcinoma, dosed 110 weeks, study length 111 weeks) 16.4 mg/kg/day; (rat, strain Fischer 344, females, in drinking water, site: kidney, lesion: adenoma, dosed 110 weeks, study length 111 weeks) 87.5 mg/kg/day. Further, the TD50 was 13.7 mg/kg/day (rat, strain Fischer 344, females, in drinking water, site: kidney, lesion: several types, types named in the paper, dosed 110 weeks, study length 111 weeks); 97.6 mg/kg/day (rat, strain Fischer 344, females, in drinking water, site: thyroid gland, lesion: several types, types named in the paper, dosed 110 weeks, study length 111 weeks); 12.6 mg/kg/day (rat, strain Fischer 344, males, in drinking water, site: kidney, lesion: adenocarcinoma, dosed 110 weeks, study length 111 weeks); 46.2 mg/kg/day (rat, strain Fischer 344, males, in drinking water, site: kidney, lesion: adenoma, dosed 110 weeks, study length 111 weeks); 16.7 mg/kg/day (rat, strain Fischer 344, males, in drinking water, site: kidney, lesion: renal-cell adenoma, dosed 52 weeks, study length 52 weeks); 15.3 mg/kg/day (rat, strain Fischer 344, males, in drinking water, site: kidney, lesion: renal-cell adenoma, dosed 77 weeks, study length 77 weeks). In addition, the TD50 reads like this: (rat, strain Fischer 344, males, in drinking water, site: kidney, lesion: renal-cell adenoma, dosed 100 weeks, study length 100 weeks) 31.1 mg/kg/day; (rat, strain Fischer 344, males, in drinking water, site: kidney, lesion: renal-cell carcinoma, dosed 100 weeks, study length 100 weeks) 62.2 mg/kg/day; (rat, strain Fischer 344, males, in drinking water, site: kidney, lesion: several types, types named in the paper, dosed 100 weeks, study length 100 weeks) 20.8 mg/kg/day; (rat, strain Fischer 344, males, in drinking water, site: kidney, lesion: several types, types named in the paper, dosed 110 weeks, study length 111 weeks) 9.62 mg/kg/day; (rat, strain Fischer 344, males, in drinking water, site: liver, lesion: several types, types named in the paper, dosed 110 weeks, study length 111 weeks) 164 mg/kg/day; (rat, strain Fischer 344, males, in drinking water, site: peritoneum, lesion: mesothelioma, dosed 110 weeks, study length 111 weeks) 25.3 mg/kg/day. Also, the TD50 is, setting by setting: (rat, strain Fischer 344, males, in drinking water, site: thyroid gland, lesion: follicular-cell adenoma, dosed 100 weeks, study length 100 weeks) 35.2 mg/kg/day; (rat, strain Fischer 344, males, in drinking water, site: thyroid gland, lesion: follicular-cell carcinoma, dosed 77 weeks, study length 77 weeks) 34.8 mg/kg/day; (rat, strain Fischer 344, males, in drinking water, site: thyroid gland, lesion: follicular-cell carcinoma, dosed 100 weeks, study length 100 weeks) 62.9 mg/kg/day; (rat, strain Fischer 344, males, in drinking water, site: thyroid gland, lesion: several types, types named in the paper, dosed 77 weeks, study length 77 weeks) 21.8 mg/kg/day; (rat, strain Fischer 344, males, in drinking water, site: thyroid gland, lesion: several types, types named in the paper, dosed 100 weeks, study length 100 weeks) 22.2 mg/kg/day; (rat, strain Fischer 344, males, in drinking water, site: tunica vaginalis, lesion: mesothelioma, dosed 52 weeks, study length 52 weeks) 36.1 mg/kg/day. The TD50 is 15.3 mg/kg/day (rat, strain Fischer 344, males, in drinking water, site: tunica vaginalis, lesion: mesothelioma, dosed 77 weeks, study length 77 weeks) and 11.1 mg/kg/day (rat, strain Fischer 344, males, in drinking water, site: tunica vaginalis, lesion: mesothelioma, dosed 100 weeks, study length 100 weeks). For the same molecule, the carcinogen call reads like this: (mouse, strain Theiller's Original, males, in feed, site: any site (literature study), lesion: malignant tumor, dosed 80 weeks, study length 80 weeks) “negative (inactive)”; (mouse, strain Theiller's Original, males, in feed, site: liver, lesion: one or several types, types not named, dosed 80 weeks, study length 80 weeks) “negative (inactive)”.

Turning to `Nc1ccc(-c2ccc(F)cc2)cc1`, the TD50 runs as follows: (mouse, strain CBA, females, by gavage, site: liver, lesion: hepatoma, dosed 26 weeks, study length 114 weeks) 1.09 mg/kg/day; (mouse, strain CBA, males, by gavage, site: liver, lesion: hepatoma, dosed 26 weeks, study length 104 weeks) 1.19 mg/kg/day; (mouse, strain CBA, males, by gavage, site: liver, lesion: several types, types named in the paper, dosed 26 weeks, study length 104 weeks) 1.19 mg/kg/day.

In turn, `CC(C)(C)c1cc([N+](=O)[O-])cc([N+](=O)[O-])c1OS(C)(=O)=O` came in with a TD50 (rat, strain Sprague-Dawley, females, in feed, site: any site (literature study), lesion: several types, types named in the paper, dosed 52 weeks, study length 52 weeks) of 2.66 mg/kg/day.

Regarding `NCCCC(N)(C(=O)O)C(F)F` (stereo not given), the carcinogen call (rat, strain Wistar, males, in feed, site: stomach, glandular, lesion: one or several types, types not named, dosed 70 weeks, study length 70 weeks) is “negative (inactive)”.

Take `C=CC(O)c1ccc(OC)cc1` (stereo not given): the TD50 (mouse, strain Charles River CD1, females, in feed, site: liver, lesion: hepatoma, dosed 51 weeks, study length 86 weeks) is 57.8 mg/kg/day.

For `CC1=CC(C)(C)N(N=O)c2ccccc21`, for the setting “rat, strain CB, males, i.p., site: peritoneal cavity, lesion: sarcoma, dosed 26 weeks, study length 100 weeks”, the TD50 was 3.31 mg/kg/day.

In the case of `Cc1noc(NS(=O)(=O)c2ccc(N)cc2)c1C`, the TD50 runs as follows: (mouse, strain B6C3F1, females, in feed, site: any site (literature study), lesion: several types, types named in the paper, dosed 103 weeks, study length 104 weeks) 8180 mg/kg/day; (mouse, strain B6C3F1, females, in feed, site: liver, lesion: hepatocellular adenoma + hepatocellular carcinoma + neoplastic nodule, dosed 103 weeks, study length 104 weeks) 2650 mg/kg/day; (mouse, strain B6C3F1, females, in feed, site: liver, lesion: hepatocellular carcinoma, dosed 103 weeks, study length 104 weeks) 2650 mg/kg/day (inactive); (mouse, strain B6C3F1, females, in feed, site: lung, lesion: alveolar/bronchiolar adenoma + alveolar/bronchiolar carcinoma, dosed 103 weeks, study length 104 weeks) 11900 mg/kg/day; (mouse, strain B6C3F1, males, in feed, site: liver, lesion: hepatocellular adenoma + hepatocellular carcinoma + neoplastic nodule, dosed 103 weeks, study length 104 weeks) 6910 mg/kg/day; (mouse, strain B6C3F1, males, in feed, site: lung, lesion: alveolar/bronchiolar adenoma + alveolar/bronchiolar carcinoma, dosed 103 weeks, study length 104 weeks) 49500 mg/kg/day. In addition, the TD50 by setting is: (rat, strain Fischer 344, males, in feed, site: any site (literature study), lesion: several types, types named in the paper, dosed 103 weeks, study length 105 weeks) 135 mg/kg/day (inactive); (rat, strain Fischer 344, males, in feed, site: liver, lesion: hepatocellular adenoma + hepatocellular carcinoma + neoplastic nodule, dosed 103 weeks, study length 105 weeks) 26300 mg/kg/day. The carcinogen call is “negative (inactive)” (mouse, strain B6C3F1, males, in feed, site: any site (literature study), lesion: several types, types named in the paper, dosed 103 weeks, study length 104 weeks) and “negative (inactive)” (rat, strain Fischer 344, females, in feed, site: any site (literature study), lesion: several types, types named in the paper, dosed 103 weeks, study length 106 weeks).
